B1: 39S: lead optimized monoclonal antibody derived from the 1.39.1 antibody; VH SEQ ID NO:15, VL SEQ ID NO:16 (antibody, V domains shown)
VH: EVQLVESGGGLVKPGGSLRLSCAASGFTFSSYSMSWVRQAPGKGLEWVSSISSSSSYIYYADSVKGRFTISRDNAKNSLYLQMNSLRAEDTAVYYCARGGDAYNYYYFDYWGQGTLVTVSS
VL: DIVMTQTPLSLSVTPGQPASISCKSSQSVFFRSNNKNILAWYLQKPGQPPQLLIYWASSRESGVPDRFSGSGSGTDFTLKISRVEAEDVGVYYCQQYFGSPFTFGPGTKVDIK

Tests used:
[1] = system: RT-112; test: Disruption of intracellular microtubule network (immunofluorescence); format: cell-based, human; details: RT-112 (T-DM1 ineligible), 5 nM ADC overnight
Experimental: (§1) On day 1, cells were harvested by trypsinization, resuspended in culture media, and then seeded in 8-well chamber slides at a density of 6×10^4 cells/well. Slides were incubated at 37° C./5% CO2 overnight. On day 2, media were aspirated to remove any unattached cells and then fresh media containing 5 nM ADC to be tested were added to the cells. Slides were incubated at 37° C./5% CO2 overnight. On day 3, each chamber was washed twice with 1×PBS. Cells were then fixed with 4% PFA for 20 min. At the end of fixation, the chambers were removed and slides were stained following standard immunofluorescence procedures. Briefly, cells were permeabilized using Triton X-100 and washed with 1×PBS containing Tween-20. Rabbit anti-human α-Tubulin Alexa-Fluor 488 (clone 11H10) was diluted by 1:100 in DAKO antibody diluent and added to the slides. After incubation at room temperature for 1 hour, slides were coversliped with ProLong® Gold Antifade Reagent containing DAPI. Stained cells were visualized by the Leica SP5 Confocal Microscope and the Leica Application Suite Advanced Fluorescence software suite.

[2] = system: SKOV-3; test: as above; format: cell-based, human; details: SKOV-3 (T-DM1 eligible), 5 nM ADC overnight
Experimental: as §1

[3] = system: SKBR-3; test: In vitro cytotoxic activity (Cell Titer Glo); format: cell-based, human; details: SKBR-3, 3 to 4 days; read-out: In vitro potency (EC50 in pM)
Experimental: (§2) A panel of human cancer cell lines expressing various levels of HER2 was used to evaluate the cytotoxic activity of bispecific ADC (Table 5 in Example 1). Briefly, cells were harvested, resuspended, and plated in serum-containing culture media at a density of 5,000 to 20,000 per well (depending on the growth kinetics of each cell line) of 96-well plates in a volume of 100 μL. A 2× concentration of each dose of antibody or ADC to be tested was prepared by diluting the test articles in culture medium. One hundred microliters of each test article was added to cells in triplicate such that the final dose curve ranged from 5 nM down to 0.08 pM in a stepwise 1:4 serial dilution series. The treated cells were incubated at 37° C./5% CO2 for 3 to 4 days, depending on the growth kinetics of each particular cell line. Cell viability was determined using Cell Titer Glo according to manufacturer's instructions. Data are analyzed by the GraphPad Prism software and presented as percent growth inhibition relative to the untreated control. EC50 values were determined using Sigmoidal non-linear regression analysis with GraphPad Prism software and were summarized in Table 6.

[4] = system: MDA-MB-361; test: In vitro cytotoxic activity (Cell Titer Glo); format: cell-based, human; details: MDA-MB-361, 3 to 4 days; read-out: In vitro potency (EC50 in pM)
Experimental: as §2

[5] = system: ZR-75-1; test: In vitro cytotoxic activity (Cell Titer Glo); format: cell-based, human; details: ZR-75-1, 3 to 4 days
Experimental: (§3) Briefly, cells were harvested, resuspended, and plated in serum-containing culture media at a density of 5,000 to 20,000 per well (depending on the growth kinetics of each cell line) of 96-well plates in a volume of 100 μL. A 2× concentration of each dose of antibody or ADC to be tested was prepared by diluting the test articles in culture medium. One hundred microliters of each test article was added to cells in triplicate such that the final dose curve ranged from 5 nM down to 0.08 pM in a stepwise 1:4 serial dilution series. The treated cells were incubated at 37° C./5% CO2 for 3 to 4 days, depending on the growth kinetics of each particular cell line. Cell viability was determined using Cell Titer Glo according to manufacturer's instructions. Data are analyzed by the GraphPad Prism software and presented as percent growth inhibition relative to the untreated control.

[6] = system: MCF-7; test: In vitro cytotoxic activity (Cell Titer Glo); format: cell-based, human; details: MCF-7, 3 to 4 days
Experimental: as §3

[7] = system: MDA-MB-468; test: In vitro cytotoxic activity (Cell Titer Glo); format: cell-based, human; details: MDA-MB-468, 3 to 4 days
Experimental: as §3

[8] = system: ST225 model; test: PDX tumor model (HER2-3+ breast cancer); format: in vivo, Athymic nude mice; details: Bs2-4T at 3 mg/kg
Experimental: All mouse experiments were carried out in compliance with the guidelines published by the Association for Assessment and Accreditation of Laboratory Animal Care (AAALAC) and protocols approved by the MedImmune Institutional Animal Care and Use Committee. Athymic nude mice between 4-8 weeks of age were used in the studies. In subcutaneous CBX models, animals were injected unilaterally on the right flank with tumor cells harvested from culture at a specific passage lot. In orthotopic CBX models, xenografts were established by injecting 5×10^6 cells per mouse (suspended in 50% matrigel) into the mammary fat pad on the right flank of animals. In PDX models, animals are implanted unilaterally on the flank with tumor fragments harvested from host animals each implanted from a specific passage lot. Pre-study tumor volumes were recorded for each experiment beginning approximately one week prior to its estimated start date. When tumors reach the appropriate tumor volume initiation (TVI) range (typically 150-250 mm^3), animals are randomized into treatment and control groups and dosing initiated. […] Animals were observed daily and tumor dimensions and body weights were measured and recorded twice weekly. Tumor volumes are calculated using the following formula: tumor volume=π÷6 (length×width^2). […]

[9] = system: MDA-MB-361 cells; format: cell-based, human; details: MDA-MB-361, 10 pM, relative to untreated control
Experimental: MDA-MB-361 cells were cultured under standard tissue culture conditions in Leibovitz's L-15 medium supplemented with 20% FBS. Cells were harvested by trypsinization, washed twice with PBS, and resuspended to 30,000 cells per mL in stem cell medium (SCM: DMEM/F12 supplemented with 20 ng/mL EGF, 10 ng/mL bFGF, 5 mg/mL insulin, 0.4% BSA and 1% knock-out serum replacement). […] At the end of treatment, the primary spheres were harvested, dissociated using 0.05% trypsin and resuspended at a density of 30,000 cells/mL in SCM containing the same antibody treatment as the primary sphere culture. Cells were then plated in triplicate into 96-well ultra-low attachment plates and incubated for 4 days. Sphere cell viability was determined using Cell Titer Glo according to manufacturer's instructions. Data are presented as fold of CSC sphere formation relative to the untreated control.

[10] = target: mouse Her2 (Mus musculus, UniProt P70424); test: ProteOn SPR binding of 39S to captured Mouse Her2; details: Mouse Her2 control
Sequence of mouse Her2 (P70424 23-1256): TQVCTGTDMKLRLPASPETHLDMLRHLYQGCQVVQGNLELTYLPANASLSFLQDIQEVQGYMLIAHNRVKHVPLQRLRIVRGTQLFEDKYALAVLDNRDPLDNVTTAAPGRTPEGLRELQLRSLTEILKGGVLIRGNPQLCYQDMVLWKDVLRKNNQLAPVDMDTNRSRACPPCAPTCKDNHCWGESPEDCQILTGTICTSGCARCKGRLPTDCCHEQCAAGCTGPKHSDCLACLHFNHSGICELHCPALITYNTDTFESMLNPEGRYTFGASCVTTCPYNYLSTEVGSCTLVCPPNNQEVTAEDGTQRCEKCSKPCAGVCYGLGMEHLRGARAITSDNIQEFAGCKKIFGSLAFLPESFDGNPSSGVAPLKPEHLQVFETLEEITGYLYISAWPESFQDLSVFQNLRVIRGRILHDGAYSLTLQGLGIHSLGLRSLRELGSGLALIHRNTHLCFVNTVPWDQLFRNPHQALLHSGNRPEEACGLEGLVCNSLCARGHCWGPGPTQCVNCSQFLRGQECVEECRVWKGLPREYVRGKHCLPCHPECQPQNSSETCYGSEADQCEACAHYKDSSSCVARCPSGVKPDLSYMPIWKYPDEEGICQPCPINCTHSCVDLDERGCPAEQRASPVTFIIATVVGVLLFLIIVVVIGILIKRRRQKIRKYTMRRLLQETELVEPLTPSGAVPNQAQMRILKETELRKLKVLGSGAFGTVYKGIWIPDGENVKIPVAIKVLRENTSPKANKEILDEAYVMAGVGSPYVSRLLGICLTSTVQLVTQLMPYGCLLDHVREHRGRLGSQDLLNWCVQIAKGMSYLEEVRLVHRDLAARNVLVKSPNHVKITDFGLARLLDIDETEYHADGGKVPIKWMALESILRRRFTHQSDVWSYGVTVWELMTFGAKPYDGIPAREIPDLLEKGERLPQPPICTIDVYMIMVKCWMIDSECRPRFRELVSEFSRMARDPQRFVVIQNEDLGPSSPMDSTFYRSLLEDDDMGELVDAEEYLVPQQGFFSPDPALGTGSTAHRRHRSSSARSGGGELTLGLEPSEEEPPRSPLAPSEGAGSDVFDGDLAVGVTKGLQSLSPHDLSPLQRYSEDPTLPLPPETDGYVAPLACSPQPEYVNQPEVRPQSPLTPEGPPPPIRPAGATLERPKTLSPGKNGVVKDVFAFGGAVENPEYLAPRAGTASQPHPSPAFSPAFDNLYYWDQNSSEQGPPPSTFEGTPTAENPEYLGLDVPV
Text: The variant nomenclature denotes types of variants (KO/KI) and the swapped regions with amino acid numbering. Amino acid positions were denoted basing on the numbering scheme of mature human HER2 sequences without its signal peptide. The expression levels of all variants were monitored by an anti-His polyclonal antibody. The binding profiles of 39S to these variants were characterized using a SPR based instrument ProteOn™ by capturing variants on sensor surfaces using anti-human and mouse Her2 polyclonal antibodies.
The binding characteristics of 39S to chimeric human/mouse variants were studied using a ProteOn™ XPR36 instrument (BioRad). Standard amine coupling was used to immobilize an anti-human or mouse Her2 polyclonal antibody (R&D System) in 10 mM sodium acetate (pH 5.0) to the surface of a GLC biosensor chip at ˜5000 resonance units (RU) for each channel. The chimeric proteins in cell culture supernatant were injected and captured by anti-human or mouse polyclonal antibodies onto the GLC surface with a ˜200RU response. Anti-HER2 mAb 39S was diluted in phosphate-buffered saline (PBS) (pH 7.4) with 0.005% Tween-20 from 10 nM to 0.625 nM (1:2 dilution), and injected at 100 μL/min for 180 sec with a 600-second dissociation time. Expression levels of chimeric variants were monitored by flowing anti-His polyclonal antibody (MedImmune) under the same conditions as injecting 39S. […]

[11] = system: MCF-7 cells; test: Ligand-dependent proliferation inhibition assay; format: cell-based, human; details: in combination with trastuzumab or pertuzumab
Experimental: Cell viability was determined using Cell Titer Glo from Promega according to manufacturer's instructions.

[12] = target: T1, HER2:HER3 heterodimerization (Homo sapiens, UniProt P04626); test: Disruption of HER2:HER3 heterodimerization (IP/Western, T47D cells); format: cell-based; details: 500 nM antibody, heregulin-b1 8 ng/mL
T1 construct: endogenous in cells; host or cells: T47D
Experimental: Cells were seeded at a density of 1×10^6 cells/well in a 6-well plate and then incubated overnight at 37° C./5% CO2. […] After pre-treatment, heregulin-β1 was added at a final concentration of 8 ng/mL and cells were incubated for 5 min at 37° C./5% CO2. Cells were then washed twice with ice-cold 1×PBS, lysed and immune-precipitated using mouse anti-human HER2 (clone 44E7) antibody and the Pierce Classic IP Kit from Thermo Scientific according to manufacturer's instructions. Immune-precipitated protein samples were eluted in Laemmli buffer containing 2-mecaptoethanol and analyzed by Western blot using standard protocol. Rabbit anti-human HER2 (clone 29D8) antibody was used to detect HER2 and rabbit anti-human HER3 (C-17) polyclonal antibody was used to detect HER3 in the Western blot analysis.

Row | Molecule | disruption of intracellular microtubule networks [1] | disruption of intracellular microtubule networks [2] | EC50 [3] | EC50 [4] | In vitro potency (EC50 in pM) [5] | In vitro potency (EC50 in pM) [6] | In vitro potency (EC50 in pM) [7] | in vivo activity (tumor growth) [8] | inhibition of CSC sphere formation [9] | The binding affinity of 39S (KD) [10] | inhibition of ligand-dependent proliferation in combination [11] | disruption of HER2:HER3 heterodimerization induced by ligand stimulation [12]
1 | T-DM1 [reference compound] | inactive | capable of disrupting microtubule networks | 82.6 pM | 266 pM | Inactive | Inactive | Inactive | tumor stasis | no activity | – | – | –
2 | B1 | – | – | – | – | – | – | – | – | – | No | additive or synergistic inhibition | can disrupt

— patent publication US10160812B2, “Bispecific HER2 antibodies” (MedImmune, LLC, priority 2014, dated 2018)
